Measured values: patent US9771389B2, “Tylosin derivatives and method for preparation thereof” (BAYER ANIMAL HEALTH GMBH, priority 2013, dated 2017)
Values after ≈ are worked out from the molar mass of the structure shown. Where two headings read alike, the source gives them in different places.

Columns and labels:
[1] = system: Mannheimia haemolytica, 3 isolates; test: MIC against Mannheimia haemolytica isolates; type: cell-based; settings: Mannheimia haemolytica
Protocol: (§1) Minimal inhibitory concentrations (MICs) were determined against the most prevalent pathogens in cattle (Mannheimia Haemolytica, 3 isolates) and swine (A. pleuropneumoniae, 6 isolates). In addition the activity of several compounds was tested against two bacterial species, i.e. Mannheimia haemolytica and Actinobacillus pleuropneumoniae, which are considered as the most important bacterial respiratory pathogens in cattle and swine, respectively.

[2] = system: Actinobacillus pleuropneumoniae, 6 isolates; test: MIC against Actinobacillus pleuropneumoniae isolates; type: cell-based
Protocol: as §1

[3] = system: Bacillus subtilis ATCC6633; test: Paper disc assay, Bacillus subtilis; type: cell-based; settings: S
Protocol: (§2) (2) Antibacterial activities against other bacteria were determined with Micrococcus luteus ATCC9341 (1), Bacillus subtilis […] (s), Escherichia coli NIHJ (c), Xanthomonas campestris KB88 (X), Mucor racemosus IFO 4581 (Mu) and Candida albicans ATCC 64548 (Ca).
(§3) Bacillus subtilis ATCC6633 was incubated in Davis synthetic medium and then the seed broth was combined with the medium in the ratio of 1:99 to obtain a test plate. Micrococcus luteus ATCC9341, Escherichia coli NIHJ and Xanthomonas campestris KB88 were respectively incubated in Nutrient agar medium and inoculated at 0.2%, 0.5% and 1.0%. Mucor racemosus IFO 4581 and Candida albicans ATCC 64548 were respectively incubated in GY agar medium and then inoculated at 0.3% and 0.2%.
(§4) A paper disc (ADVANTEC, Φ:6 mm) was impregnated with a solution of test compound and dried under reduced pressure. The paper disc was put on the test plate and it was incubated for 24 hours at 37° C. After incubation, the inhibition zone diameter and clarity (A to E) were determined.

[4] = system: Micrococcus luteus ATCC9341; test: Paper disc assay, Micrococcus luteus; type: cell-based; settings: column 1
Protocol: as §2, §3, §4

[5] = system: Xanthomonas campestris KB88; test: Paper disc assay, Xanthomonas campestris; type: cell-based; settings: X
Protocol: as §2, §3, §4

[6] = system: M. hemolytica KB345 (Tilmicosin-sensitivity strain); test: Paper disc assay, M. hemolytica KB345; type: cell-based, Mannhemia hemolytica; settings: Table 4
Protocol: (1) Antibacterial activities against Mannheimia and Pasteurella were determined by the following steps: • 1) M. hemolytica KB345 (Tilmicosin-sensitivity strain) and M. hemolytica KB346 (Tilmicosin-low sensitivity strain) were provided. KB 345 strain stored at −80° C. was seeded to BHIB agar medium (10 mL) by using Microbank beads (Pro-Lab) and platinum nail. After statically incubating the KB 345 strain for 24 hours at 37° C., it was seeded to maintaining slant BHIB agar medium (7 mL) by using platinum loop, further statically incubated for 24 hours at 37° C. to obtain slant. One platinum loop of KB 345 strain stored at the slant was inoculated into a large test tube charged with BHIB liquid medium (10 mL) and then incubated for 24 hours at 37° C. with shaking. • 2) A paper disc (ADVANTEC, Φ:6 mm) was impregnated with a solution of test compound and dried under reduced pressure. • 3) To a melted BHIB agar medium was inoculated 1% of the broth obtained from step 1) above to prepare a test plate. After the medium set, the paper disc prepared in step 2) above was put on the plate and it was incubated at 37° C. • 4) After one day, the inhibition zone diameter and clarity (A to E) were determined. For KB346 strain, the same procedures were repeated.

[7] = 3ISOLATES, 3 Mannheimia haemolytica isolates, broth dilution method, read-out: Range of minimum inhibitory concentrations (MIC)
[8] = 6ISOLATES, 6 Actinobacillus pleuropneumoniae isolates, broth dilution method, read-out: Range of minimum inhibitory concentrations (MIC)

CC[C@H]1OC(=O)C[C@@H](O)[C@H](C)[C@@H](O[C@@H]2OC(C)[C@@H](O)C(N(C)C)C2O)[C@@H](CCNCCn2cc(-c3ccccc3[N+](=O)[O-])nn2)C[C@@H](C)C(=O)/C=C/C(C)=C/[C@@H]1CO (stereo partly shown) [YT718]
MIC [1, 7]: 2 to 8 µg/mL (≈ 2.45 to 9.82 µM)
MIC [2, 8]: 8 µg/mL (≈ 9.82 µM)

CC[C@H]1OC(=O)C[C@@H](O)[C@H](C)[C@@H](O[C@@H]2OC(C)[C@@H](O)C(N(C)C)C2O)[C@@H](CCN(CCn2cc(-c3cccnc3)nn2)Cc2ccccc2)C[C@@H](C)C(=O)/C=C/C(C)=C/[C@@H]1CO (stereo partly shown) [YT664]
MIC [1, 7]: 4 to 8 µg/mL (≈ 4.65 to 9.29 µM)
MIC [2, 8]: 2 to 8 µg/mL (≈ 2.32 to 9.29 µM)

CC[C@H]1OC(=O)C[C@@H](O)[C@H](C)[C@@H](O[C@@H]2OC(C)[C@@H](O)C(N(C)C)C2O)[C@@H](CCNCCn2cc(-c3cc(C)c(C)cc3C)nn2)C[C@@H](C)C(=O)/C=C/C(C)=C/[C@@H]1CO (stereo partly shown) [YT723]
MIC [1, 7]: 2 to 8 µg/mL (≈ 2.46 to 9.85 µM)
MIC [2, 8]: 8 µg/mL (≈ 9.85 µM)

CC[C@H]1OC(=O)C[C@@H](O)[C@H](C)[C@@H](O[C@@H]2OC(C)[C@@H](O)C(N(C)C)C2O)[C@@H](CCn2cc(CCCCCl)nn2)C[C@@H](C)C(=O)/C=C/C(C)=C/[C@@H]1CO[C@@H]1OC(C)[C@@H](O)C(OC)C1OC (stereo partly shown) [YT19, 20-(4-(4-chlorobutyl)-1H-1,2,3-triazol-1-yl)-20-deoxodesmycosin]
Inhibition zone ([3]; 0.1 mg/6 mm disc): 7 mm
Inhibition zone ([3]; 1 mg/6 mm disc): 10.5 mm
Inhibition zone ([3]; 10 mg/6 mm disc): 15 mm
Inhibition zone ([4]; 0.1 mg/6 mm disc): 13 mm
Inhibition zone ([4]; 1 mg/6 mm disc): 19 mm
Inhibition zone ([4]; 10 mg/6 mm disc): 26 mm
Inhibition zone ([5]; 0.1 mg/6 mm disc): 7 mm
Inhibition zone ([5]; 1 mg/6 mm disc): 14.5 mm
Inhibition zone ([5]; 10 mg/6 mm disc): 23 mm

CC[C@H]1OC(=O)C[C@@H](O)[C@H](C)[C@@H](O[C@@H]2OC(C)[C@@H](O)C(N(C)C)C2O)[C@@H](CCNCCn2cc(-c3ccccc3)nn2)C[C@@H](C)C(=O)/C=C/C(C)=C/[C@@H]1CO (stereo partly shown) [YT617]
MIC [1, 7]: 2 to 8 µg/mL (≈ 2.6 to 10.4 µM)
MIC [2, 8]: 4 µg/mL (≈ 5.19 µM)

CC[C@H]1OC(=O)C[C@@H](O)[C@H](C)[C@@H](O[C@@H]2OC(C)[C@@H](O)C(N(C)C)C2O)[C@@H](CC=O)C[C@@H](C)C(=O)/C=C/C(C)=C/[C@@H]1Cn1cc(-c2ccc(-c3ccccc3)cc2)nn1 (stereo partly shown) [YT104, 23-(4-biphenyl-1H-1,2,3-triazol-1-yl)-23-Deoxy-5-O-mycaminosyltylonolide]
MIC ([1]; M. haemolytica isolate 1, read-out: MICs): 8 µg/mL (≈ 9.99 µM)
MIC ([1]; M. haemolytica isolate 2, read-out: MICs): 4 µg/mL (≈ 4.99 µM)
MIC ([1]; M. haemolytica isolate 3, read-out: MICs): 8 µg/mL (≈ 9.99 µM)
MIC ([2]; Actinobacillus pleuropneumoniae, pleuropneumoniae isolate 1, read-out: MICs): > 16 µg/mL
MICs ([2]; pleuropneumoniae isolate 2): >16 µg/mL
MICs ([2]; pleuropneumoniae isolate 3): >16 µg/mL
MICs ([2]; pleuropneumoniae isolate 4): >16 µg/mL
MICs ([2]; pleuropneumoniae isolate 5): >16 µg/mL
MICs ([2]; pleuropneumoniae isolate 6): >16 µg/mL

CCC1OC(=O)CC(O)C(C)C(OC2OC(C)C(O)C(N(C)C)C2O)C(CCn2cc(-c3ccccc3)nn2)CC(C)C(=O)C=CC(C)=CC1CI (stereo not shown) [YT113]
Inhibition zone ([6]; 10 mg/6 mm disk): 11.0 mm
Inhibition zone ([6]; 30 mg/6 mm disk): 18.0 mm
Inhibition zone ([6]; 100 mg/6 mm disk): 19.5 mm

CCC1OC(=O)CC(O)C(C)C(OC2OC(C)C(O)C(N(C)C)C2O)C(CCn2cc(-c3ccccc3)nn2)CC(C)C(=O)C=CC(C)=CC1CN=[N+]=[N-] (stereo not shown) [YT114, 20-(4-phenyl-1H-1,2,3-triazol-1-yl)-20-deoxo-23-azido-23-deoxy-5-O-mycaminosyltylonolide]
Inhibition zone ([6]; 3 mg/6 mm disk): 11.5 mm
Inhibition zone ([6]; 10 mg/6 mm disk): 17.5 mm
Inhibition zone ([6]; 30 mg/6 mm disk): 21.0 mm
Inhibition zone ([6]; 100 mg/6 mm disk): 21.0 mm

CC[C@H]1OC(=O)C[C@@H](O)[C@H](C)[C@@H](O[C@@H]2OC(C)[C@@H](O)C(N(C)C)C2O)[C@@H](CCNCCn2cc(-c3ccsc3)nn2)C[C@@H](C)C(=O)/C=C/C(C)=C/[C@@H]1CO (stereo partly shown) [YT717]
MIC [1, 7]: 2 to 8 µg/mL (≈ 2.58 to 10.3 µM)
MIC [2, 8]: 4 µg/mL (≈ 5.15 µM)

CC[C@H]1OC(=O)C[C@@H](O)[C@H](C)[C@@H](O[C@@H]2OC(C)[C@@H](O)C(N(C)C)C2O)[C@@H](CCn2cc(-c3cnc4ccccc4c3)nn2)C[C@@H](C)C(=O)/C=C/C(C)=C/[C@@H]1CO (stereo partly shown) [YT733]
MIC [1, 7]: 2 to 4 µg/mL (≈ 2.57 to 5.14 µM)
MIC [2, 8]: 4 µg/mL (≈ 5.14 µM)
